Laboratory results: paper PMC5575474, “Structure‐Enabled Discovery of a Stapled Peptide Inhibitor to Target the Oncogenic Transcriptional Repressor TLE1” (Chemistry (Weinheim an Der Bergstrasse, Germany), 2017)
Like-named read-outs stand apart in the source and are kept apart here. No end group written: not given here.

What was measured:
[1] = biological target: T1, human TLE1 443-770 (TLE1 WD40 domain) (Homo sapiens, UniProt Q04724); assay: Isothermal titration calorimetry (ITC), peptide–TLE1 binding; conditions: for Kd / affinity relative to unconstrained (acyclic) peptide: cyclic vs acyclic FWRPW
T1 construct: the TLE1 WD40 domain (TLE1 residues 443–770); His6 (N, cleaved yes); made in house; host or cells: Sf9 insect cells (baculovirus, pFastBacHTb)
Source text: (§1) We next investigated the binding of this macrocycle, as well as acyclic MWRPW and FWRPW peptides, to TLE1. We used two orthogonal binding assays, the thermal shift assay10 and isothermal titration calorimetry (ITC),11 to test binding of 18 and the linear peptides to the TLE1 WD40 domain (TLE1 residues 443–770).
This was initially more pronounced for FWRPW and 18, but also recognisable for the MWRPW peptide (see Figure S1 in the Supporting Information). We repeated the MWRPW titration at slightly higher protein and peptide concentrations to achieve a higher enthalpy signal, and therefore, better resolution of the titration event. Under these conditions, we also observed a clear biphasic curve (Figure 3). The biphasic curves are indicative of two binding events and we calculated the thermodynamic data for both (Table 2).
Figure 3 Top: ITC measurements of peptide–TLE1 binding interactions. Data fitting to a two‐site independent binding model are shown; integrated heats are shown in the inset. Bottom: Histograms showing ΔG, ΔH, and −TΔS. The thermodynamic values are also presented in Table 1. a) MWRPW–TLE1 binding, n=1. Experiment performed with TLE1 (40 μM) and MWRPW peptide (420 μM). b) FWRPW–TLE1 binding, n=2. Experiment performed with TLE1 (30 μM), FWRPW peptide (240 μM), and then repeated with TLE1 (24 μM), FWRPW peptide (180 μM). Histograms represent averaged values; error bars denote SD. c) 18–TLE1 binding, n=2. Experiment performed with TLE1 (30 μM), 18 (200 μM) and then repeated with TLE1 (30 μM), 18 (180 μM). Histograms represent averaged values; error bars denote SD. […]
(§2) Cloning, Expression and Purification of humanTLE1 443- 770.
(§3) The construct encoding the sequence for human TLE1 443- 770 was generated ac c or ding Laurence Pearl’s laboratory procedure. Brief ly, the C-terminal region of human TLE1 (GenBank accession number M99435) encoding amino acids 443– 770 was PCR amplif ied and cloned into pFastBacHTb (GIBCO) in-frame with the N-terminal His6 tag sequence.
(§4) Starting from this construct we generated recombinant baculovirus using the Bac-to-Bac® Baculovirus Expression System (Thermo Fisher Scientif ic). For protein production, Sf9 insect cells were grown in sf -900 II SFM media (Thermo Fisher Scientific) to a cell density of around 2 × 10^6 cells per milliliter and inf ected with 20 μL of virus per 107cells. Inf ected cell cultures were harvested 3 days post-inf ection.
(§5) Cell pellets were resuspended in 6 volumes of lysis buffer (50 mM Tris pH 7.5, 500 mM NaCl, 1 mM MgCl) containing 1× complete EDTA-free protease inhibitors and 25 U/mL benzonase nuclease. The resuspended cells were lysed by sonication. Following […]
(§6) centrifugation, the supernatant was purified over 2x HiTrap talon crude columns (Cobalt - IMAC, GE). Columns were washed with 10m M Imidazole and then the protein was eluted in […]
(§7) The Talon eluate was incubated overnight at 4 °C with TEV protease to cleave the 6xHis tag and then re- loaded on talon column: the unbound wash contains the cleaved hTLE1 443- […]
(§8) The protein was subsequently purif ied over a Superdex 75 16/60 column that was equilibrated in 50 mM Hepes pH 7.5 + 250 mM naCl + 1 mM TCEP.
(§9) Selected f ractions were pooled, concentrated to 8 mg/mL and stored at - 80 °C. The protein was stable in these conditions f or up to three months.
(§10) Protein concentration was measured using an ND-1000 UV spectrophotometer (Nanodrop Technologies Inc., DE., USA). […]
1-2 days at 20 ◦C. Some crystals were transf erred to hanging drop (vapour diffusion) plates with the wells containing precipitant solution (PEG 8000 (22%), 100mM Na cacodylate, 100 mM Ca(OAc)2) and the drops containing the same precipitant solution supplemented with 1.0 or 2.5 mM peptide and a resultant final DMSO concentration of 1.0% or 2.5%, respectively. These crystals were soaked for around 5 h at 20 °C. Apo or peptide- s oak ed crystals were harvested, briefly transferred to cryprotectant (either paratone- N or a buffer […]

[2] = biological target: T1, human TLE1 443-770 (TLE1 WD40 domain); assay: Thermal shift assay (TSA, ΔTm); format: binding; conditions: 6 μM human TLE1 443-770, 25 mM Tris pH7.5, 125 mM NaCl, 1 mM DTT, 0.0002% Tween20, 3x SYPRO Orange, 10 °C to 95 °C, 0.5 °/min, mean of triplicate
Procedure: as §1
Figure 2 ΔT m plot of peptide–hTLE1 443–770 interactions in thermal shift experiments. All measurements were carried out in triplicate and the points are reported as mean+standard deviation (SD). […]
as §2, §3, §4, §5, §6, §7, §8, §9, §10
1-2 days at 20 ◦C. Some crystals were transf erred to hanging drop (vapour diffusion) plates with the wells containing precipitant solution (PEG 8000 (22%), 100mM Na cacodylate, 100 mM Ca(OAc)2) and the drops containing the same precipitant solution supplemented with 1.0 or 2.5 mM peptide and a resultant final DMSO concentration of 1.0% or 2.5%, respectively. These crystals were soaked for around 5 h at 20 °C. Apo or peptide- s oak ed crystals were harvested, briefly transferred to cryprotectant (either paratone- N or a buffer containing ethylene glycol (40%), PEG 8000 […], 100 mM sodium cacodylate, 100 m M Ca(OAc)2) and f lash frozen in liquid nitrogen.
X-Ray data we r e collected at the Diamond Light Source, Oxford, UK on beamline I04.
Crystals belonged to the space group P2 1 and diffracted to between 1.6 and 2.9 Å. Dat a we r e integrated and merged using MOSFLM[4a,b] and AI MLESS.[4c] The structures were solved by molecular replacement using PHASER, [5] with either 2CE9 or our refined apo structure as the molecular replacement model with ligands and water removed. T he structures were manually rebuilt in COOT [6] and refined with BUSTER[7] in iterative cycles.
Ligand restraints f or the constrained peptide were generated with Grade[8] and Mogul.[9] T he quality of the structures was assessed with MOLPROBITY.[10]
Linear, unmodified peptides FW RPW and MWRPW were purchased from Cambridge Peptides as lyophilized powder. The peptides were then reconstituted in 1:1 mixture of DMSO and H2O as 10 mM stocks and stored at -80 °C. […]

[3] = biological target: T1, human TLE1 443-770 (TLE1 WD40 domain); assay: Isothermal titration calorimetry (ITC), peptide–TLE1 binding; conditions: one-site independent binding model; TLE1 30 μM, peptide 350 μM; 25 °C, 50 mM Hepes pH7.5, 250 mM NaCl; mean ± SD, n = 2 (Table S1)
TLE1 WDR domain = conditions: cited from earlier work
Source text: As discussed in more detail below, the bioactive conformation of this peptide is characterised by a compactly folded core formed by the central three amino acids. This compact core engages in extensive interactions with the WDR1 domain and positions key amino acid side chains such that they can form add ...

[4] = first binding event, two-site independent binding model, 25 °C, pH7.5, MWRPW n=1, FWRPW and 18 n=2, mean ± SD
[5] = second binding event, two-site independent binding model, 25 °C, pH7.5, MWRPW n=1, FWRPW and 18 n=2, mean ± SD

T1 sequence (Q04724 443-770): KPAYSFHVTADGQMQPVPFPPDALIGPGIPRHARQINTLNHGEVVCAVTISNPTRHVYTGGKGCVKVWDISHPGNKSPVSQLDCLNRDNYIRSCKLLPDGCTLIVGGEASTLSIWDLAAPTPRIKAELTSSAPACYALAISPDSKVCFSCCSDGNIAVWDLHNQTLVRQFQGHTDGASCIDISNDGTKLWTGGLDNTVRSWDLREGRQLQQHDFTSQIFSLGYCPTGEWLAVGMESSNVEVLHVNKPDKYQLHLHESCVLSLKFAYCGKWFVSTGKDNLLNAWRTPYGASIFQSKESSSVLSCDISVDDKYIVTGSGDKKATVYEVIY

Q: Which “Kd / affinity relative to unconstrained (acyclic) peptide” value [1] does the source give for `N=C(N)NCCC[C@@H]1NC(=O)[C@@H](NC(=O)[C@@H](N)Cc2ccccc2)Cc2cn(c3ccccc23)CCCC[C@@]2(C(=O)N[C@@H](Cc3c[nH]c4ccccc34)C(=O)O)CCCN2C1=O` [compound 18] here?
A: approximately six‐fold lower affinity than that of the acyclic peptide

Q: And the “Kd / affinity relative to unconstrained (acyclic) peptide” value ([1]; listed as cycFWRPW)?
A: approximately five‐fold higher

Q: What about the Kd ([1]; second binding event, two-site independent binding model, 25 °C, 50 mM Hepes pH7.5, 250 mM NaCl, 1 mM TCEP, 0.05% Tween 20, MWRPW n=1 (TLE1 40 μM, peptide 420 μM), FWRPW n=2 (TLE1 30/24 μM, peptide 240/180 μM), 18 n=2 (TLE1 30 μM, peptide 200/180 μM), read-out: Kd2) of the same compound?
A: 0.522 ± 0.0396 µM

Q: What about the ΔTm ([2]; peptide 100 μM) of the same compound?
A: 8.4 °C

Q: And the ΔTm ([2]; peptide 200 μM)?
A: 7.5 °C

Q: What does the source list for “FWRPW [linear, unmodified peptide purchased from Cambridge Peptides; acyclic counterpart of 18]”?
A: N1 ([1]; first binding event, two-site independent binding model, 25 °C, 50 mM Hepes pH7.5, 250 mM NaCl, 1 mM TCEP, 0.05% Tween 20, MWRPW n=1 (TLE1 40 μM, peptide 420 μM), FWRPW n=2 (TLE1 30/24 μM, peptide 240/180 μM), 18 n=2 (TLE1 30 μM, peptide 200/180 μM)): 0.18±0.002; ΔH1 [1, 4]: -85.8 ± 15.5 kJ/mol; −TΔS1 [1, 4]: 38.5 ± 15.9 kJ/mol; fold more potent binding than MWRPW ([1]; second binding event (Kd2)): ~10 fold; N2 ([1]; second binding event, two-site independent binding model, 25 °C, 50 mM Hepes pH7.5, 250 mM NaCl, 1 mM TCEP, 0.05% Tween 20, MWRPW n=1, FWRPW and 18 n=2): 0.7±0.004; ΔH2 [1, 5]: -61.1 ± 0 kJ/mol; −TΔS2 [1, 5]: 19.2 ± 0.84 kJ/mol; ΔTm ([2]; peptide 100 μM): 9.4 °C; ΔTm ([2]; peptide 200 μM): 10.1 °C

Q: Which results are given for MWRPW [MWRPW, reference compound]?
A: Kd [3]: 0.704 ± 0.014 µM; ΔTm ([2]; peptide 100 μM): 6.3 °C; ΔTm ([2]; peptide 200 μM): 6.9 °C

Q: For “SMWRPW [acyclic design template (pdb code 2CE9)]”, which Kd (TLE1 WDR domain) is on record?
A: 1 µM
